Each structure is given as a SMILES string. pIC50: −log10 of the molar value.

Results on 23 compounds are retold here after US20140357655A1, “SPIROINDOLINE DERIVATIVES AS GONADOTROPIN- RELEASING HORMONE RECEPTOR ANTAGONISTS” (Bayer Intellectual Property GmbH, priority 2012, published 2014).

For this assay, the target named is T1, human GnRH receptor (Homo sapiens, UniProt P30968).
T1 sequence (P30968 1-328): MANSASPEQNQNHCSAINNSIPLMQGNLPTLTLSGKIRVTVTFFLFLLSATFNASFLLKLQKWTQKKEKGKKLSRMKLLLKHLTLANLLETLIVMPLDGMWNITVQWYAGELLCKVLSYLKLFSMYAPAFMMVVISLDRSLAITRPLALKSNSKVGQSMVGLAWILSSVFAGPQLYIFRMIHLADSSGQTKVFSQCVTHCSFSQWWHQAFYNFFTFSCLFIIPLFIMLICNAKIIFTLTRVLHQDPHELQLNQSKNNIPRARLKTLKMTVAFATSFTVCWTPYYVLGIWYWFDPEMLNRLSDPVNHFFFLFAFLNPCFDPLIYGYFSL
The assay can be described thus: IP-One HTRF assay with buserelin (at EC80) stimulation. Type of assay: cell-based. The following applies: CHO cells stably expressing human GnRH receptor, read-out: Potency in IP-One HTRF assay, given as IC50. Put shortly:
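CHO cells stably expressing human GnRH receptor, preincubated 1 h at 37° C with IP1-d2, were exposed to compound and buserelin at EC80 for 1 h at 37° C. After lysis with Tb-anti-IP1 antibody (1 h, 22° C), 665/620 nm HTRF ratio read; 10 concentrations, 20 μM–1 nM, duplicates, 4-parameter IC50.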
(In TR-FRET formats the signal depends on donor and acceptor labels being close together.)
By pIC50 is commonly meant the negative decadic logarithm of the IC50, by convention in mol/L. On to `CC1N(S(=O)(=O)c2ccc(F)cc2)c2ccc(C(=O)Nc3cccc(S(=O)(=O)N(C)C)c3)cc2C12CCOCC2` (centres unmarked) [Example 11, N-[3-(N,N-dimethylsulfamoyl)phenyl]-1-[(4-fluorophenyl)sulfonyl]-2-methyl-1,2,2′,3′,5′,6′-hexahydrospiro[indole-3,4′-pyran]-5-carboxamide], for which the pIC50 was 6.42.

Turning to `O=C(NCc1ccccc1Cl)c1ccc2c(c1)C1(CC[S+]([O-])CC1)C(C1CC1)N2S(=O)(=O)c1ccc(F)cc1` (centres unmarked) [Example 13, N-(2-Chlorobenzyl)-2-cyclopropyl-1-[(4-fluorophenyl)sulfonyl]-1,2,2′,3′,5′,6′-hexahydrospiro[indole-3,4′-thiopyran]-5-carboxamide 1′-oxide], the pIC50 is 7.52.

For the compound `O=C(NCc1ncccc1C(F)(F)F)c1ccc2c(c1)C1(CCS(=O)(=O)CC1)C(C1CC1)N2S(=O)(=O)c1ccc(F)cc1` (centres unmarked) [Example 15, 2-cyclopropyl-1-[(4-fluorophenyl)sulfonyl]-N-{[3-(trifluoromethyl)pyridin-2-yl]methyl}-1,2,2′,3′,5′,6′-hexahydrospiro[indole-3,4′-thiopyran]-5-carboxamide 1′,1′-dioxide], the pIC50 is 6.99. For the compound `O=C(NCc1ccc(F)cc1Cl)c1ccc2c(c1)C1(CCS(=O)(=O)CC1)C(C1CC1)N2S(=O)(=O)c1ccc(F)cc1` (centres unmarked) [Example 16, N-(2-chloro-4-fluorobenzyl)-2-cyclopropyl-1-[(4-fluorophenyl)sulfonyl]-1,2,2′,3′,5′,6′-hexahydrospiro[indole-3,4′-thiopyran]-5-carboxamide 1′,1′-dioxide], the pIC50 is 7.13. Regarding `O=C(NCc1ncc(F)cc1Cl)c1ccc2c(c1)C1(CCS(=O)(=O)CC1)C(C1CC1)N2S(=O)(=O)c1ccc(F)cc1` (centres unmarked) [Example 17, N-[(3-chloro-5-fluoropyridin-2-yl)methyl]-2-cyclopropyl-1-[(4-fluorophenyl)sulfonyl]-1,2,2′,3′,5′,6′-hexahydrospiro[indole-3,4′-thiopyran]-5-carboxamide 1′,1′-dioxide], the pIC50 is 6.74. On to `O=C(NCc1ccccc1Cl)c1ccc2c(c1)C1(CCS(=O)(=O)CC1)C(C1CC1)N2S(=O)(=O)c1ccc(F)cc1` (centres unmarked) [Example 18, N-(2-chlorobenzyl)-2-cyclopropyl-1-[(4-fluorophenyl)sulfonyl]-1,2,2′,3′,5′,6′-hexahydrospiro[indole-3,4′-thiopyran]-5-carboxamide 1′,1′-dioxide], for which the pIC50 was 7.33. As for `CC(C)(NC(=O)c1ccc2c(c1)C1(CCS(=O)(=O)CC1)C(C1CC1)N2S(=O)(=O)c1ccc(F)cc1)c1ccc(F)cc1Cl` (stereo not drawn) [Example 19, N-(2-chloro-4-fluoro-α,α-dimethylbenzyl)-2-cyclopropyl-1-[(4-fluorophenyl)sulfonyl]-1,2,2′,3′,5′,6′-hexahydrospiro[indole-3,4′-thiopyran]-5-carboxamide 1′,1′-dioxide], the negative logarithm of the IC50 (pIC50) is 5.38. The result for `CC(C)(NC(=O)c1ccc2c(c1)C1(CCS(=O)(=O)CC1)C(C1CC1)N2S(=O)(=O)c1ccc(F)cc1)c1ccc(F)cc1` (stereo not drawn) [Example 20, 2-cyclopropyl-N-(4-fluoro-α,α-dimethylbenzyl)-1-[(4-fluorophenyl)sulfonyl]-1,2,2′,3′,5′,6′-hexahydrospiro[indole-3,4′-thiopyran]-5-carboxamide 1′,1′-dioxide] reads 6.46; that for `O=C(NC1(c2ccccc2Cl)CC1)c1ccc2c(c1)C1(CCS(=O)(=O)CC1)C(C1CC1)N2S(=O)(=O)c1ccc(F)cc1` (centres unmarked) [Example 21, N-[1-(2-chlorophenyl)cyclopropyl]-2-cyclopropyl-1-[(4-fluorophenyl)sulfonyl]-1,2,2′,3′,5′,6′-hexahydrospiro[indole-3,4′-thiopyran]-5-carboxamide 1′,1′-dioxide], 5.52; that for `O=C(NCc1ccccn1)c1ccc2c(c1)C1(CCS(=O)(=O)CC1)C(C1CC1)N2S(=O)(=O)c1ccc(F)cc1` (centres unmarked) [Example 22, 2-cyclopropyl-1-[(4-fluorophenyl)sulfonyl]-N-(2-pyridylmethyl)-1,2,2′,3′,5′,6′-hexahydrospiro[indole-3,4′-thiopyran]-5-carboxamide 1′,1′-dioxide], 5.83. As for `CS(=O)(=O)c1cccc(NC(=O)c2ccc3c(c2)C2(CCS(=O)(=O)CC2)C(C2CC2)N3S(=O)(=O)c2ccc(F)cc2)c1` (centres unmarked) [Example 23, 2-cyclopropyl-1-[(4-fluorophenyl)sulfonyl]-N-(3-mesylphenyl)-1,2,2′,3′,5′,6′-hexahydrospiro[indole-3,4′-thiopyran]-5-carboxamide 1′,1′-dioxide], the negative logarithm of the IC50 (pIC50) was 6.48. The result for `O=C(NCCc1ccccc1Cl)c1ccc2c(c1)C1(CCS(=O)(=O)CC1)C(C1CC1)N2S(=O)(=O)c1ccc(F)cc1` (centres unmarked) [Example 25, N-[2-(2-chlorophenyl)ethyl]-2-cyclopropyl-1-[(4-fluorophenyl)sulfonyl]-1,2,2′,3′,5′,6′-hexahydrospiro[indole-3,4′-thiopyran]-5-carboxamide 1′,1′-dioxide] reads 5.58; that for `CC1N(S(=O)(=O)c2ccc(F)cc2)c2ccc(C(=O)NCc3ncccc3Cl)cc2C12CCS(=O)(=O)CC2` (centres unmarked) [Example 26, N-[(3-chloropyridin-2-yl)methyl]-1-[(4-fluorophenyl)sulfonyl]-2-methyl-1,2,2′,3′,5′,6′-hexahydrospiro[indole-3,4′-thiopyran]-5-carboxamide 1′,1′-dioxide], 6.19; that for `CC1N(S(=O)(=O)c2ccc(F)cc2)c2ccc(C(=O)NC(C)(C)c3ccc(F)cc3Cl)cc2C12CCS(=O)(=O)CC2` (stereo not drawn) [Example 27, N-(2-chloro-4-fluoro-α,α-dimethylbenzyl)-1-[(4-fluorophenyl)sulfonyl]-2-methyl-1,2,2′,3′,5′,6′-hexahydrospiro[indole-3,4′-thiopyran]-5-carboxamide 1′,1′-dioxide], 5.04. Regarding `CC1N(S(=O)(=O)c2ccc(F)cc2)c2ccc(C(=O)NCc3ncc(F)cc3Cl)cc2C12CCS(=O)(=O)CC2` (centres unmarked) [Example 28, N-[(3-chloro-5-fluoropyridin-2-yl)methyl]-1-[(4-fluorophenyl)sulfonyl]-2-methyl-1,2,2′,3′,5′,6′-hexahydrospiro[indole-3,4′-thiopyran]-5-carboxamide 1′,1′-dioxide], the pIC50 is 6.39. The same measure for `Cc1ccc(NC(=O)c2ccc3c(c2)C2(CCS(=O)(=O)CC2)C(C2CC2)N3S(=O)(=O)c2ccc(F)cc2)nc1` (centres unmarked) [Example 29, 2-cyclopropyl-1-[(4-fluorophenyl)sulfonyl]-N-(5-methylpyridin-2-yl)-1,2,2′,3′,5′,6′-hexahydrospiro[indole-3,4′-thiopyran]-5-carboxamide 1′,1′-dioxide]: under 4.70; for `NS(=O)(=O)c1cccc(NC(=O)c2ccc3c(c2)C2(CCS(=O)(=O)CC2)C(C2CC2)N3S(=O)(=O)c2ccc(F)cc2)c1` (centres unmarked) [Example 30, 2-cyclopropyl-1-[(4-fluorophenyl)sulfonyl]-N-(3-sulfamoylphenyl)-1,2,2′,3′,5′,6′-hexahydrospiro[indole-3,4′-thiopyran]-5-carboxamide 1′,1′-dioxide]: 6.61. The same measure for `Cc1cccnc1CNC(=O)c1ccc2c(c1)C1(CCS(=O)(=O)CC1)C(C1CC1)N2S(=O)(=O)c1ccc(F)cc1` (centres unmarked) [Example 31, 2-cyclopropyl-1-[(4-fluorophenyl)sulfonyl]-N-[(3-methylpyridin-2-yl)methyl]-1,2,2′,3′,5′,6′-hexahydrospiro[indole-3,4′-thiopyran]-5-carboxamide 1′,1′-dioxide]: 6.30; for `O=C(NCc1ccccc1C(F)(F)F)c1ccc2c(c1)C1(CCS(=O)(=O)CC1)C(C1CC1)N2S(=O)(=O)c1ccc(F)cc1` (centres unmarked) [Example 32, 2-cyclopropyl-1-[(4-fluorophenyl)sulfonyl]-N-[2-(trifluoromethyl)benzyl]-1,2,2′,3′,5′,6′-hexahydrospiro[indole-3,4′-thiopyran]-5-carboxamide 1′,1′-dioxide]: 7.24. The same measure for `O=C(NC1CCOc2ccccc21)c1ccc2c(c1)C1(CCS(=O)(=O)CC1)C(C1CC1)N2S(=O)(=O)c1ccc(F)cc1` (centres unmarked) [Example 33, 2-cyclopropyl-N-(3,4-dihydro-2H-chromen-4-yl)-1-[(4-fluorophenyl)sulfonyl]-1,2,2′,3′,5′,6′-hexahydrospiro[indole-3,4′-thiopyran]-5-carboxamide 1′,1′-dioxide]: 6.02. In the case of `COC(=O)c1cccc(NC(=O)c2ccc3c(c2)C2(CCS(=O)(=O)CC2)C(C2CC2)N3S(=O)(=O)c2ccc(F)cc2)c1` (centres unmarked) [Example 34, methyl 3-[({2-cyclopropyl-1-[(4-fluorophenyl)sulfonyl]-1′,1′-dioxido-1,2,2′,3′,5′,6′-hexahydrospiro[indole-3,4′-thiopyran]-5-yl}carbonyl)amino]benzoate], the pIC50 was 7.18. As to `O=C(NCC1CC1)c1ccc2c(c1)C1(CCS(=O)(=O)CC1)C(C1CC1)N2S(=O)(=O)c1ccc(F)cc1` (centres unmarked) [Example 35, 2-cyclopropyl-N-(cyclopropylmethyl)-1-[(4-fluorophenyl)sulfonyl]-1,2,2′,3′,5′,6′-hexahydrospiro[indole-3,4′-thiopyran]-5-carboxamide 1′,1′-dioxide], the pIC50 is 6.20. Consider `O=C(NCC1CCCCC1)c1ccc2c(c1)C1(CCS(=O)(=O)CC1)C(C1CC1)N2S(=O)(=O)c1ccc(F)cc1` (centres unmarked) [Example 36, N-(cyclohexylmethyl)-2-cyclopropyl-1-[(4-fluorophenyl)sulfonyl]-1,2,2′,3′,5′,6′-hexahydrospiro[indole-3,4′-thiopyran]-5-carboxamide 1′,1′-dioxide], for which the pIC50 is 6.77.
